From patent US9775904B2 (priority 2014, dated 2017) come the findings set out here.

Where two headings read alike, the source gives them in different places. Where only a bound is given, the exact number is not on record here.

The target of data set [1] is T1, human GLP-1 receptor (hGLP-1 R) (Homo sapiens, UniProt P43220).
T1 construct: expressed in transfected cells
The experiment in a line: cAMP response of HEK-293 cells expressing human GLP-1 receptor (HTRF). The data set is classed as cell-based. The settings on record: Table 6. As to the method:
(§1) cAMP content of cells was determined using a kit from Cisbio Corp. (cat. no. 62AM4PEC) based on HTRF (Homogenous Time Resolved Fluorescence). For preparation, cells were split into T175 culture flasks and grown overnight to near confluency in medium (DMEM/10% FBS). Medium was then removed and cells washed with PBS lacking calcium and magnesium, followed by proteinase treatment with accutase (Sigma-Aldrich cat. no. A6964). Detached cells were washed and resuspended in assay buffer (1×HBSS; 20 mM HEPES, 0.1% BSA, 2 mM IBMX) and cellular density determined. They were then diluted to 400000 cells/ml and 25 μl-aliquots dispensed into the wells of 96-well plates. For measurement, 25 μl of test compound in assay buffer was added to the wells, followed by incubation for 30 minutes at room temperature.

Data set [2] has as its target T2, human glucagon receptor (hGlucagon R) (Homo sapiens, UniProt P47871).
T2 construct: expressed in transfected cells
The experiment in a line: cAMP response of HEK-293 cells expressing human glucagon receptor (HTRF). The data set is classed as cell-based. As to the method: as §1

Data set [3] concerns the target T3, human GIP receptor (hGIP-R) (Homo sapiens, UniProt P48546).
T3 construct: expressed in transfected cells
T3 sequence (P48546 22-466): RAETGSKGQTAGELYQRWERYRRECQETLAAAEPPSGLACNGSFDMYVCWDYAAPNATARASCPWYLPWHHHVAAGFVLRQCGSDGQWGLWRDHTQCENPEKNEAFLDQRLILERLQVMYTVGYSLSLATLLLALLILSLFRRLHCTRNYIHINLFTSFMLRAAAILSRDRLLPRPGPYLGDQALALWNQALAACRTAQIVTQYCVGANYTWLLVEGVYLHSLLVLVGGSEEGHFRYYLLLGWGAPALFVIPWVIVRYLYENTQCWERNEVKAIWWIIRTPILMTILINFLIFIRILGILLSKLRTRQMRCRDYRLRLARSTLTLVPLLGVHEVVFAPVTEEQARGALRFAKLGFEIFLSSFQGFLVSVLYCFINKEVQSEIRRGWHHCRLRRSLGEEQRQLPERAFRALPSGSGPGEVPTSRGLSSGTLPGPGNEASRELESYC
The experiment in a line: cAMP response of HEK-293 cells expressing human GIP receptor (HTRF). Type of data set: cell-based. As to the method:
as §1

Data set [4] in a line: Solubility testing in buffer (HPLC-UV). Type of data set: physicochemical. The protocol: Prior to the testing of solubility and stability of a peptide batch, its purity (HPLC-UV) was determined.
. Therefore, solutions from solid samples were prepared in different buffer systems with a concentration of 10 mg/mL compound based on the previously determined % purity. HPLC-UV was performed after 2 h of gentle agitation from the supernatant, which was obtained by 20 min of centrifugation at 4500 rpm.
[…]. This analysis also served as starting point (t0) for the stability testing.

The nature of data set [5]: Acute effect on blood glucose in fed female DIO C57BL/6 mice. Type of data set: in vivo. The settings on record: 50 μg/kg s.c. once daily; t=1, 2, 3, 4, 6 and 24 h post dosing; p<0.001. The protocol:
(§2) C57BL/6 Harlan mice are housed in groups in a specific pathogen-free barrier facility on a 12 h light/dark cycle with free access to water and standard or high-fat diet. After prefeeding on high-fat diet, mice are stratified to treatment groups (n=8), so that each group has similar mean body weight. An age-matched group with ad-libitum access to standard chow is included as standard control group. Before the experiment, mice are subcutaneously (s.c.) injected with vehicle solution and weighed for 3 days to acclimate them to the procedures.
1) Acute effect on blood glucose in fed female DIO mice: initial blood samples are taken just before first administration (s.c.) of vehicle (phosphate buffer solution) or the exendin-4 derivatives (dissolved in phosphate buffer), respectively. The volume of administration is 5 mL/kg. The animals have access to water and their corresponding diet during the experiment. Blood glucose levels are measured at t=0 h, t=1 h, t=2 h, t=3 h, t=4 h, t=6 h and t=24 h (method: Accu-Check glucometer). Blood sampling is performed by tail incision without anaesthesia.
(§3) Statistical analyses are performed with Everstat 6.0 by repeated measures two-way ANOVA and Dunnetts post-hoc analyses (glucose profile) and 1-way-ANOVA, followed by Dunnetts post-hoc test (body weight, body fat). Differences versus vehicle-treated DIO control mice are considered statistically significant at the p<0.05 level.
At predefined time points, more blood samples were taken to measure blood glucose and generate the blood glucose profile over 24 h.

The nature of data set [6]: Chronic effect on body weight and body fat in female DIO C57BL/6 mice, 4 weeks. The data set is classed as in vivo. The settings on record: 50 μg/kg qd s.c. As to the method: as §2
2) Chronic effect on body weight in female DIO mice: mice are treated once (s.c. in evening hours) or twice daily (s.c. in the morning and in the evening), respectively, at the beginning and the end of the light phase with either vehicle or exendin-4 derivatives for 4 weeks. Body weight is recorded daily. Two days before start of treatment and on day 26, total fat mass is measured by nuclear magnetic resonance (NMR).
as §3
Body weight was recorded daily, and body fat content was determined before the start and after 4 weeks of treatment. […] These changes resulted from a decrease in body fat, as shown by the absolute changes in body fat content (Table 10, FIG. 3).
Body weight was recorded daily, and body fat content was determined before the start and after 4 weeks of treatment.

Where [7] appears, read: pH 4.5, target concentration 10 mg/ml, read-out: solubility [mg/ml] pH 4.5.
The mark [8] stands for this setting: pH 7.4, target concentration 10 mg/ml, read-out: solubility [mg/ml] pH 7.4.

T2 sequence (P47871 26-477): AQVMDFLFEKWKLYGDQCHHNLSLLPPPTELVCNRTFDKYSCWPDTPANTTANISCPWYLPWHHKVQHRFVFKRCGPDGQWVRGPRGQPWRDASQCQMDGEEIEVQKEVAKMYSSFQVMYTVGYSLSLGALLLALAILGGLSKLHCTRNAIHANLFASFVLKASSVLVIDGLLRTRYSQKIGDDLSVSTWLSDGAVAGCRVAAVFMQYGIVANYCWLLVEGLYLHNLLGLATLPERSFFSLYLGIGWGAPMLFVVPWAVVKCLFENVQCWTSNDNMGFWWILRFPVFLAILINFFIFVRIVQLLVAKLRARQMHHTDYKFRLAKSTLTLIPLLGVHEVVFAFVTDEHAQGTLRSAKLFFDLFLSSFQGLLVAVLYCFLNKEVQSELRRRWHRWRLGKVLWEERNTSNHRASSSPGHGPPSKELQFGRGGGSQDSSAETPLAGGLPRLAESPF
T1 sequence (P43220 24-463): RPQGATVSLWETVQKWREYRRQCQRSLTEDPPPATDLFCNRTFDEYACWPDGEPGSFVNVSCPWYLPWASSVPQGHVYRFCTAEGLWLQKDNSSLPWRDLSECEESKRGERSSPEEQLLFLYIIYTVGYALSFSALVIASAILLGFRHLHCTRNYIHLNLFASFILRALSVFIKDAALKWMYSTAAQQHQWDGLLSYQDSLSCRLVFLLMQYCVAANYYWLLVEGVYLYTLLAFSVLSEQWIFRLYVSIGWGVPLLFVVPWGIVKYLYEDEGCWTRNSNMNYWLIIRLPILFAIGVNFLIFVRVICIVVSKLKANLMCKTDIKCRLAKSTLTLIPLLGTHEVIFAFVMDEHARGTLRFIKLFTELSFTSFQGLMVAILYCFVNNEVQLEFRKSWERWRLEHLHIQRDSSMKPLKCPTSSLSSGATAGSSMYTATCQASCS

Take `CCCCCCCCCCCCCCCC(=O)N[C@@H](CCC(=O)NCCCC[C@H](NC(=O)[C@H](CCC(N)=O)NC(=O)[C@H](CCCCN)NC(=O)[C@H](CO)NC(=O)[C@H](CC(C)C)NC(=O)[C@H](CC(=O)O)NC(=O)[C@H](CO)NC(=O)[C@@H](NC(=O)[C@H](Cc1ccccc1)NC(=O)[C@@H](NC(=O)CNC(=O)[C@H](CCC(N)=O)NC(=O)C(C)(C)NC(=O)[C@@H](N)Cc1c[nH]cn1)[C@@H](C)O)[C@@H](C)O)C(=O)N[C@@H](CC(=O)O)C(=O)N[C@@H](CCC(=O)O)C(=O)N[C@@H](CCC(N)=O)C(=O)N[C@@H](CCCNC(=N)N)C(=O)N[C@@H](C)C(=O)N[C@@H](CCCCN)C(=O)N[C@@H](CC(C)C)C(=O)N[C@@H](Cc1ccccc1)C(=O)N[C@H](C(=O)N[C@@H](CCC(=O)O)C(=O)N[C@@H](Cc1c[nH]c2ccccc12)C(=O)N[C@@H](CC(C)C)C(=O)NC(C)(C)C(=O)N[C@@H](C)C(=O)NCC(=O)NCC(=O)N1CCC[C@H]1C(=O)N[C@@H](CO)C(=O)N[C@@H](CO)C(=O)NCC(=O)N[C@@H](C)C(=O)N1CCC[C@H]1C(=O)N1CCC[C@H]1C(=O)N1CCC[C@H]1C(=O)N[C@@H](CO)C(N)=O)[C@@H](C)CC)C(=O)O` [SEQ ID NO: 10, H-Aib-Q-G-T-F-T-S-D-L-S-K-Q-K(γE-x53)-D-E-Q-R-A-K-L-F-I-E-W-L-Aib-A-G-G-P-S-S-G-A-P-P-P-S-NH2]: the EC50 in data set [1] is 3.5 pM; in data set [2] (Table 6), 0.0524 nM; in data set [3] (Table 6, read-out: EC50 hGIP-R), 0.89 nM.
Consider `CCCCCCCCCCCCCCCC(=O)N[C@@H](CCC(=O)N[C@@H](CCC(=O)NCCCC[C@H](NC(=O)[C@H](CCC(N)=O)NC(=O)[C@H](CCCCN)NC(=O)[C@H](CO)NC(=O)[C@H](CC(C)C)NC(=O)[C@H](CC(=O)O)NC(=O)[C@H](CO)NC(=O)[C@@H](NC(=O)[C@H](Cc1ccccc1)NC(=O)[C@@H](NC(=O)CNC(=O)[C@H](CCC(N)=O)NC(=O)C(C)(C)NC(=O)[C@@H](N)Cc1c[nH]cn1)[C@@H](C)O)[C@@H](C)O)C(=O)N[C@@H](CC(=O)O)C(=O)N[C@@H](CCC(=O)O)C(=O)N[C@@H](CCC(N)=O)C(=O)N[C@@H](CCCNC(=N)N)C(=O)N[C@@H](C)C(=O)N[C@@H](CCCCN)C(=O)N[C@@H](CC(C)C)C(=O)N[C@@H](Cc1ccccc1)C(=O)N[C@H](C(=O)N[C@@H](CCC(=O)O)C(=O)N[C@@H](Cc1c[nH]c2ccccc12)C(=O)N[C@@H](CC(C)C)C(=O)NC(C)(C)C(=O)N[C@@H](CCCCN)C(=O)N[C@H](C)C(=O)NCC(=O)N1CCC[C@H]1C(=O)N[C@@H](CO)C(=O)N[C@@H](CO)C(=O)NCC(=O)N[C@@H](C)C(=O)N1CCC[C@H]1C(=O)N1CCC[C@H]1C(=O)N1CCC[C@H]1C(=O)N[C@@H](CO)C(N)=O)[C@@H](C)CC)C(=O)O)C(=O)O` [SEQ ID NO: 14, H-Aib-Q-G-T-F-T-S-D-L-S-K-Q-K(γE-γE-x53)-D-E-Q-R-A-K-L-F-I-E-W-L-Aib-K-dAla-G-P-S-S-G-A-P-P-P-S-NH2], for which the solubility at 2 h in data set [4] (setting [7]) and in data set [4] (setting [8]) was over 8 mg/mL in each case.
With `CCCCCCCCCCCCCCCCCC(=O)N[C@@H](CCC(=O)NCCCC[C@H](NC(=O)[C@H](CCC(N)=O)NC(=O)[C@H](CCCCN)NC(=O)[C@H](CO)NC(=O)[C@H](CC(C)C)NC(=O)[C@H](CC(=O)O)NC(=O)[C@H](CO)NC(=O)[C@@H](NC(=O)[C@H](Cc1ccccc1)NC(=O)[C@@H](NC(=O)CNC(=O)[C@H](CCC(N)=O)NC(=O)C(C)(C)NC(=O)[C@@H](N)Cc1c[nH]cn1)[C@@H](C)O)[C@@H](C)O)C(=O)N[C@@H](CC(=O)O)C(=O)N[C@@H](CCC(=O)O)C(=O)N[C@@H](CCC(N)=O)C(=O)N[C@@H](CCCNC(=N)N)C(=O)N[C@@H](C)C(=O)N[C@@H](CCCCN)C(=O)N[C@@H](CC(C)C)C(=O)N[C@@H](Cc1ccccc1)C(=O)N[C@H](C(=O)N[C@@H](CCC(=O)O)C(=O)N[C@@H](Cc1c[nH]c2ccccc12)C(=O)N[C@@H](CC(C)C)C(=O)NC(C)(C)C(=O)N[C@@H](C)C(=O)NCC(=O)NCC(=O)N1CCC[C@H]1C(=O)N[C@@H](CO)C(=O)N[C@@H](CO)C(=O)NCC(=O)N[C@@H](C)C(=O)N1CCC[C@H]1C(=O)N1CCC[C@H]1C(=O)N1CCC[C@H]1C(=O)N[C@@H](CO)C(N)=O)[C@@H](C)CC)C(=O)O` [SEQ ID NO: 9, H-Aib-Q-G-T-F-T-S-D-L-S-K-Q-K(γE-x70)-D-E-Q-R-A-K-L-F-I-E-W-L-Aib-A-G-G-P-S-S-G-A-P-P-P-S-NH2], the concentration giving a half-maximal response (EC50) was found to be 6.4 pM in data set [1]; 0.0154 nM in data set [2] (Table 6); 1.16 nM in data set [3] (Table 6, read-out: EC50 hGIP-R).
For the compound `CCCCCCCCCCCCCCCC(=O)N[C@@H](CCC(=O)N[C@@H](CCC(=O)NCCCC[C@H](NC(=O)[C@H](CCC(N)=O)NC(=O)[C@H](CCCCN)NC(=O)[C@H](CO)NC(=O)[C@H](CC(C)C)NC(=O)[C@H](CC(=O)O)NC(=O)[C@H](CO)NC(=O)[C@@H](NC(=O)[C@H](Cc1ccccc1)NC(=O)[C@@H](NC(=O)CNC(=O)[C@H](CCC(N)=O)NC(=O)C(C)(C)NC(=O)[C@@H](N)Cc1c[nH]cn1)[C@@H](C)O)[C@@H](C)O)C(=O)N[C@@H](CC(=O)O)C(=O)N[C@@H](CCC(=O)O)C(=O)N[C@@H](CCC(N)=O)C(=O)N[C@@H](CCCNC(=N)N)C(=O)N[C@@H](C)C(=O)N[C@@H](CCCCN)C(=O)N[C@@H](CC(C)C)C(=O)N[C@@H](Cc1ccccc1)C(=O)N[C@H](C(=O)N[C@@H](CCC(=O)O)C(=O)N[C@@H](Cc1c[nH]c2ccccc12)C(=O)N[C@@H](CC(C)C)C(=O)NC(C)(C)C(=O)N[C@@H](CCCCN)C(=O)NCC(=O)NCC(=O)N1CCC[C@H]1C(=O)N[C@@H](CO)C(=O)N[C@@H](CO)C(=O)NCC(=O)N[C@@H](C)C(=O)N1CCC[C@H]1C(=O)N1CCC[C@H]1C(=O)N1CCC[C@H]1C(=O)N[C@@H](CO)C(N)=O)[C@@H](C)CC)C(=O)O)C(=O)O` [SEQ ID NO: 15, H-Aib-Q-G-T-F-T-S-D-L-S-K-Q-K(γE-γE-x53)-D-E-Q-R-A-K-L-F-I-E-W-L-Aib-K-G-G-P-S-S-G-A-P-P-P-S-NH2], the EC50 amounted to 0.394 nM in data set [2] (Table 7, comparison of residue in position 14) and 11.9 nM in data set [3] (Table 7, comparison of residue in position 14, read-out: EC50 hGIP-1). Further, the solubility at 2 h in data set [4] (setting [7]) and in data set [4] (setting [8]) was over 8 mg/mL throughout. Also, the “Blood glucose compared to DIO control mice” value in data set [5] is on record as “significant decrease in blood glucose”. Further, the “Day on which significant body weight decrease begins” value in data set [6] (4 weeks, continuing through the end of the study) was 4 days. Also, in data set [6] (4 weeks, p>0.001 by the end of the study (so in the source)), the “Daily body weight compared to vehicle DIO control mice” value is on record as “statistically significant decrease”. In addition, the “Body fat change” value in data set [6] (DIO mice, 4-week treatment, NMR, mean ± SEM) was -4.01 ± 0.68 g. Besides, in data set [6] (DIO mice, 4-week treatment, mean ± SEM), the “Overall weight change” value was -4.59 ± 1.1 g.
